Test results published in patent publication US8796323B2, “Defensin-like molecules as novel antimicrobial agents” (University of Maryland, Baltimore, priority 2010, dated 2014).
No end group written: not given here.

How the values were obtained:
[1] = Surface Plasmon Resonance binding of compounds to immobilized 3-Lipid II; settings: SPR, FIG. 5
Method: The present inventors examined if the identified compounds themselves directly interact with Lipid II, which would be expected if they mimic the binding of HNP-1. Binding of compounds was tested directly using Surface Plasmon Resonance with 3-Lipid II immobilized on the chip surface (FIG. 5).

[2] = test system: Staphylococcus aureus ATCC 29213; experiment: vCC antibacterial assay, S. aureus; assay type: cell-based; settings: 30 minutes exposure, 500 to 1.95 μM
Method: (§1) The inventors have now tested the bacterial killing capacity of the identified compounds. The antibacterial activity was determined using the vCC assay as discussed in Ericksen, B., Wu, Z., Lu, W. and Lehrer, R. I. (2005), “Antibacterial activity and specificity of the six human {alpha}-defensins. Antimicrob Agents” Chemother 49, 269-75.). All compounds were tested initially for killing of Staphylococcus aureus ATCC 29213. All compounds were dissolved in DiMethylSulfylOxide (DMSO) and exposed to bacteria for 30 minutes in concentrations ranging from 500 to 1.95 μM. Compounds effectively killing S. aureus were subsequently tested against E. coli ATCC 25922 to assay for strain-selectivity.

E. coli ATCC 25922 = experiment: vCC antibacterial assay, E. coli (strain-selectivity); assay type: cell-based; settings: 30 minutes exposure, 500 to 1.95 μM
Method: as §1

[3] = test system: intestinal epithelial cell line Caco-2; experiment: Caco-2 cell viability, MTT assay; assay type: cell-based; settings: Caco-2, 24 h
Method: Caco-2 cells were seeded at 2. 10^5 cells/ml and exposed to compounds ranging in concentration from 500 to 3.7125 μM. Cell viability was determined after 24 h by the MTT assay and is expressed as a percentage of the viability of untreated cells.

[4] = ANTS/DPX leakage assay from large unilamellar vesicles; settings: POPG LUVs, panel of six human α-defensins, FIG. 1
Method: Large unilamellar vesicles (LUVs) with the low molecular weight fluorophore/quencher pair (ANTS/DPX) encapsulated were prepared using the standard extrusion method. Specifically, phospholipids were dissolved in chloroform at a desired molar ratio, dried as a film by solvent evaporation. After removal of residual solvent, the lipid film was hydrated in the fluorescent solution containing 5 mM HEPES, 12.5 mM ANTS, 45 mM DPX, and 20 mM NaCl, pH 7.0, freeze-thawed for 10 cycles and extruded 10 times through 0.4-μm polycarbonate membranes. LUVs were separated from unencapsulated materials by gel filtration chromatography using a Sepharose CL-4B column eluted with 5 mM HEPES, 100 mM NaCl, pH 7.4 (high-salt). For leakage assays in a low-salt buffer, purified vesicles were further diluted with 5 mM HEPES containing 10 mM NaCl, pH 7.4.
Leakage of ANTS from LUVs, monitored on a LS-55 Perkin Elmer luminescence spectrometer, was characterized by an increase in fluorescence, which was quenched by DPX when encapsulated together inside liposomes (Ellens, H., et al., 1985, “H+- and Ca2+-induced fusion and destabilization of liposomes,” Biochemistry 24:3099-3106). 270 μl ANTS/DPX-encapsulated LUVs (in either high-salt or low-salt buffers) were added to each well of a 96-well plate to a final lipid concentration of 600 μM. 30 μl H2O was added to the first well of each row as a blank, and 30 μl 2.5% (v/v) Triton X-100 to the last (twelfth) well as the control for 100% leakage. Upon addition of 30 μl of a twofold dilution series of defensin, the fluorescence signal was recorded at 515 nm with an excitation wavelength of 353 nm, 10 nm bandwidths and a 390 nm cut-off filter in the emission path. Percent leakage is expressed as: % leakage=((Ft−F0)/(F100−F0))×100 where Ft is the fluorescence determined at different time points after addition of defensin, F0 is the background fluorescence of the “blank” cells, and F100 is the fluorescence of the control cells containing 0.25% Triton X-100. Lipid II Purification
Defensins are believed to kill bacteria by permeabilizing the membrane, causing leakage of intracellular content and eventually cell lysis and death. The present inventors tested the ability of six human α-defensins to induce leakage of fluorophores encapsulated in LUVs (See FIG. 1). […] (A) At high salt concentration (5 mM HEPES, 100 mM NaCl, pH 7.4). (B) At low salt concentration (5 mM HEPES, 10 mM NaCl, pH 7.4). LUVs were 250 nm in diameter and 600 μM (phospholipids) in concentration.
(A) Effects of surface charge on HNP1-induced leakage from LUVs of four different compositions: POPC (circle, surface charge=0), POPC/POPG=3:2 (square, surface charge=−0.4), POPC/POPG=2:3 (triangle, surface charge=−0.6), and POPG (diamond, surface charge=−1). (B) LUV (POPG:DPPC 1:1) leakage induced by L-HNP1 (circles) or D-HNP1 (squares). A two-fold dilution series of HNP1 peptides from 0.19 to 100 μg/ml was incubated with 600 μM LUVs for one hour before readings were taken. Error bars indicate the standard error in triplicate experiments.

S. aureus = settings: literature (Ericksen 2005; Wei 2009); cited from earlier work

Molecule | binding to 3-Lipid II immobilized on the chip surface [1] | killing of S. aureus [2] | bactericidal activity against E. coli (E. coli ATCC 25922) | cytotoxicity [3] | membrane activity (leakage of ANTS-DPX from POPG LUVs) [4] | bactericidal activity against S. aureus / Gram-positive bacteria (S. aureus)
3-ethyl-5-methyl-4-phenyl-2-[3-(1,3,3-trimethyl-1,3-dihydro-2H-indol-2-ylidene)prop-1-en-1-yl]-1,3-thiazol-3-ium [Compound 7771-0701] | bind to Lipid II | very efficient in killing of S. aureus |  |  |  | 
Oc1ccc(C(c2ccc(O)cc2)c2ccc(F)cc2)cc1 [Compound 0251-0215, 4-[(4-fluorophenyl)(4-hydroxyphenyl)methyl]phenol] | bind to Lipid II | very efficient in killing of S. aureus |  |  |  | 
OCc1ccc2c(c1)C1c3ccccc3C2c2ccccc21 [Compound 5100015, pentacyclo[6.6.6.0˜2,7˜.0˜9,14˜.0˜15,20˜]icosa-2,4,6,9,11,13,15,17,19-nonaen-4-ylmethanol] | bind to Lipid II | very efficient in killing of S. aureus |  |  |  | 
CC[n+]1c(/C=C/C=C2C=C(/C=C/N(C)c3ccccc3)CC(C)(C)C/2)sc2ccccc21 [Compound 5107930, 2-[3-(5,5-dimethyl-3-{2-[methyl(phenyl)amino]vinyl}-2-cyclohexen-1-ylidene)-1-propen-1-yl]-3-ethyl-1,3-benzothiazol-3-ium iodide] |  | Effectively kills S. aureus at low concentrations | Shows little bactericidal activity against E. coli | Displays relatively low cytotoxicity |  | 
HNP4: fourth human neutrophil α-defensin (VCSCRLVFCRRTELRVGNCLIGGVSFTYCCTRV; not fully specified; ends and bridges not checked; UniProt P12838 64-96, looked up) |  |  |  |  | most membrane active defensin in the panel of six | ineffective against Gram-positive bacteria
HD-5: α-defensin Human Defensin 5 (peptide, UniProt Q01523 20-94, looked up, Defensin-5) Defensin alpha 5: ESLQERADEATTQKQSGEDNQDLAISFAGNGLSALRTSGSQARATCYCRTGRCATRESLSGVCEISGRLYRLCCR |  |  |  |  | little membrane activity even at high concentrations | potently bactericidal
